{
  "source": "paper doi:10.1101/2022.12.11.519956v1",
  "about": "(biorxiv, 2022)",
  "biological_target": "T1, SauUSI (Staphylococcus aureus, UniProt A0A0H2XK17)",
  "T1 sequence (A0A0H2XK17 1-953)": "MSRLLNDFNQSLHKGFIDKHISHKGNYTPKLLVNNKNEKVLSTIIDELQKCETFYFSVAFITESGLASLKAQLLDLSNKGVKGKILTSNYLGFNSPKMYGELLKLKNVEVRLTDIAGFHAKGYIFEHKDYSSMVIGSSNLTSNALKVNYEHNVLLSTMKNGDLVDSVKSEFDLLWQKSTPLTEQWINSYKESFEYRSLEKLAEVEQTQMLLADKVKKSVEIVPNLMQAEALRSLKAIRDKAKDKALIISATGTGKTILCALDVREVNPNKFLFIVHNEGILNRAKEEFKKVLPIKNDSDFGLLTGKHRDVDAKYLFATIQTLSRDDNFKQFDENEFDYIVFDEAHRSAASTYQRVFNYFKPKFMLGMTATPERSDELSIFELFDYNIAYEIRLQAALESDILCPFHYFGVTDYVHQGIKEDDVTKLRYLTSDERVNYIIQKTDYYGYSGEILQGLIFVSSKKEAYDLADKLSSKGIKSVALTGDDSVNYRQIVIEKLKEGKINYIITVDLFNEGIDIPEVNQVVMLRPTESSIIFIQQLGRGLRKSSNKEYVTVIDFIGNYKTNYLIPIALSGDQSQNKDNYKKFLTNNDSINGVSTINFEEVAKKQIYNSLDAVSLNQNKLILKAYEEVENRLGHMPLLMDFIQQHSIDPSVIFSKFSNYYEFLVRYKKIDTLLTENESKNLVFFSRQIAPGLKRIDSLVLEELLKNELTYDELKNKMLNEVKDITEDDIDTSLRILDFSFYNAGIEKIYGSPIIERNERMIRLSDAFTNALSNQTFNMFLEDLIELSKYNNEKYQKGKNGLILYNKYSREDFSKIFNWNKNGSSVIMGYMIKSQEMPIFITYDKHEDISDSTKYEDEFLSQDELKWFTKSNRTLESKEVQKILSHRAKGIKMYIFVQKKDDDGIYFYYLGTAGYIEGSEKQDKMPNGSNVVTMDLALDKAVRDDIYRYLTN",
  "test": "biochemical",
  "data": [
    {"compound": "Nc1ncnc2c1ncn2[C@@H]1O[C@H](COP(=O)(O)OP(=O)(O)OP(=O)(O)O)[C@@H](O)[C@H]1O", "note": "[ATP]", "values": [
      {"measurement": "IC50", "value": "~760", "unit": "µM"}
    ]}
  ]
}
